Patent US20240383900A1, “SUBSTITUTED PYRAZOLO [1,5-A]PYRIMIDINE-7-AMINE COMPOUNDS AS CDK INHIBITORS AND THEIR THERAPEUTIC USE” (Carrick Therapeutics Limited, priority 2021, published 2024)
Like-named read-outs stand apart in the source and are kept apart here.

Assays:
A673 cells = assay: Cytotoxicity in A673 cells (Cell Titer Glo viability); type: cell-based; settings: for Ratio of Biochemical Potency:Cellular Potency: CDK12 IC50 / A673 IC50; for IC50: Homo sapiens
Method: Cells were plated in 96-well plates at a density of […] viable cells per well in 200 μL fully supplemented growth medium (DMEM+10% heat inactivated foetal bovine serum) and incubated for 24 hours in standard tissue culture conditions. Compounds, including MLN4924, were solubilised in DMSO and then diluted in fully supplemented growth medium at 2× their final assay concentration such that the final DMSO concentration was 0.1%. Growth medium in the assay plates was replaced with 50 μL of growth medium containing 2×MLN4924 (final assay concentration: 30 nM, where tested) or vehicle only and 50 μL of growth medium containing a 2× compound concentration series or vehicle only such that each compound was at 1× final assay concentration in 100 μL.
Cells were then incubated for 72 hours in standard tissue culture conditions before viability was assessed using 50 μL Cell Titer Glo reagent (Promega) per well and luminescence measured on an EnVision plate reader. Data were normalised to vehicle control (100%) and cells treated with 0.1% Triton x-100 for 1 hour before viability measurement (0%; full cell kill). […] Viability curves generated in the presence of MLN4924 were normalised and fixed to controls treated with MLN4924.

Human CDK12 wt/CycK = Human CDK12 wt/CycK (Homo sapiens (Human), UniProt Q9NYV4); assay: Radiometric protein kinase assay (33PanQinase Activity Assay), CDK12; type: biochemical; settings: for CDK7/CDK12: ratio of CDK7 IC50 to CDK12 IC50, greater than 1 indicates selectivity for CDK12
Method: (§1) A radiometric protein kinase assay (^33PanQinase® Activity Assay) was used for measuring the kinase activity of the two protein kinases (CDK12/CDK7). All kinase assays were performed in 96-well FlashPlates™ from PerkinElmer (Boston, MA, USA) in a 50 μL reaction volume.
(§2) The reaction cocktail was pipetted in four steps in the following order: • 20 μL of assay buffer (standard buffer) • 5 μL of ATP solution (in H2O) • 5 μL of test compound (in 10% DMSO) • 10 μL of substrate/10 μL of enzyme solution (premixed)
(§3) The reaction mixture was incubated at 30° C. for 60 min and then stopped by the addition of 2% (v/v) H3PO4. Plates were aspirated and washed two times with 200 μL 0.9% (w/v) NaCl. Incorporation of ^33Pi was determined with a microplate scintillation count (Microbeta, Wallac).
The fitting method used was a least-squares fit.

Human CDK7/CycH/MAT1 = Human CDK7/CycH/MAT1 (Homo sapiens (Human), UniProt P50613); assay: Radiometric protein kinase assay (33PanQinase Activity Assay), CDK7; type: biochemical; settings: ATP 3 μM
Method: Additionally for the CDK7 assay: • Human CDK7/CycH/MAT1 (ProQinase, 0366-0360-4—Lot 2). • RBER-CHKtide (ProQinase, 0581-0000-5—Lot 106).
as §1, §2
For the CDK7 assay, a reaction mixture (50 μL) containing the following components was prepared: • 70 mM HEPES-NaOH (pH 7.5); • sodium orthovanadate (3 μM); • PEG-20000 (50 μg/mL); • DTT (1.2 mM); • MgCl2 (3 mM); • MnCl2 (3 mM); • purified human CDK7/CycH/MAT1 (3.3 nM—Lot 02); • RBER-CHKtide substrate (40 μg/mL—Lot 106); • ATP (3 μM); • [γ-33P]-ATP (approx. 8×10^5 cpm per well); and • test compound at the appropriate concentration such that the final concentration of DMSO was […].
as §3
The residual activities for each concentration and the compound IC50 values were calculated using Quattro Workflow V3.1.1 (Quattro Research GmbH, Munich, Germany). The fitting model for the IC50 determinations was “Sigmoidal response (variable slope)” with parameters “top” fixed at 100% and “bottom” at 0%. The fitting method used was a least-squares fit.

[1] = A673, read-out: Cellular Potency IC50 (nM) (in A673 cells)
[2] = A673 cells, 72 hours, read-out: A673 IC50
[3] = ATP 0.3 μM, read-out: CDK12 IC50
[4] = read-out: CKD12 Biochemical Potency IC50

Chain of Human CDK7/CycH/MAT1 (P50613 whole entry): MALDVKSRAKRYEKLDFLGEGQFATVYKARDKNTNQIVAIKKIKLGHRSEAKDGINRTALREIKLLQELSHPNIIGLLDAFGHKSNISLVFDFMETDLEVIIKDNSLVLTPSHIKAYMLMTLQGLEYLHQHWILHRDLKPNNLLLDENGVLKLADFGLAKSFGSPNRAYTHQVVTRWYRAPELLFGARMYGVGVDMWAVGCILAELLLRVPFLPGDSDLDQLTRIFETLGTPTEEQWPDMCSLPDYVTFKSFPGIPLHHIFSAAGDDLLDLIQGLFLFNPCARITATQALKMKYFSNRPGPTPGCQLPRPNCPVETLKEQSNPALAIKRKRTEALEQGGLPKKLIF
Chain of Human CDK7/CycH/MAT1 (P51946 whole entry partner): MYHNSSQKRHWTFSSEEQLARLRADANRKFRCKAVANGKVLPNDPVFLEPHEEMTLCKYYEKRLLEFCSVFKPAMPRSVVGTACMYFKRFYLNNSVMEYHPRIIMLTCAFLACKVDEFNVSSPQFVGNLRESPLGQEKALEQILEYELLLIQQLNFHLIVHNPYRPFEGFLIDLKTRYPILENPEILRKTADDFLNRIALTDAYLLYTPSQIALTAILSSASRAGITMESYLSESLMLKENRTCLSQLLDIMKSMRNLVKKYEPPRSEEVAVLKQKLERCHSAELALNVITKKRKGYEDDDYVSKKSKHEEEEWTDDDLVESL
Chain of Human CDK7/CycH/MAT1 (P51948 whole entry partner): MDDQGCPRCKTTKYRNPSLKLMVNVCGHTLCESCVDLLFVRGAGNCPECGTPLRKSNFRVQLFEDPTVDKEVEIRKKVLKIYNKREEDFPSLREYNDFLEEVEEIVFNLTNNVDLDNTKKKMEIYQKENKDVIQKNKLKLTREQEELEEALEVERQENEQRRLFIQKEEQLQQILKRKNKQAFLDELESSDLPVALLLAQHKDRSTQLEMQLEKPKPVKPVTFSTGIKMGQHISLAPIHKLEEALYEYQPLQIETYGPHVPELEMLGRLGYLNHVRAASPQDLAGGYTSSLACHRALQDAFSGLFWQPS
Chain of Human CDK12 wt/CycK (Q9NYV4 whole entry): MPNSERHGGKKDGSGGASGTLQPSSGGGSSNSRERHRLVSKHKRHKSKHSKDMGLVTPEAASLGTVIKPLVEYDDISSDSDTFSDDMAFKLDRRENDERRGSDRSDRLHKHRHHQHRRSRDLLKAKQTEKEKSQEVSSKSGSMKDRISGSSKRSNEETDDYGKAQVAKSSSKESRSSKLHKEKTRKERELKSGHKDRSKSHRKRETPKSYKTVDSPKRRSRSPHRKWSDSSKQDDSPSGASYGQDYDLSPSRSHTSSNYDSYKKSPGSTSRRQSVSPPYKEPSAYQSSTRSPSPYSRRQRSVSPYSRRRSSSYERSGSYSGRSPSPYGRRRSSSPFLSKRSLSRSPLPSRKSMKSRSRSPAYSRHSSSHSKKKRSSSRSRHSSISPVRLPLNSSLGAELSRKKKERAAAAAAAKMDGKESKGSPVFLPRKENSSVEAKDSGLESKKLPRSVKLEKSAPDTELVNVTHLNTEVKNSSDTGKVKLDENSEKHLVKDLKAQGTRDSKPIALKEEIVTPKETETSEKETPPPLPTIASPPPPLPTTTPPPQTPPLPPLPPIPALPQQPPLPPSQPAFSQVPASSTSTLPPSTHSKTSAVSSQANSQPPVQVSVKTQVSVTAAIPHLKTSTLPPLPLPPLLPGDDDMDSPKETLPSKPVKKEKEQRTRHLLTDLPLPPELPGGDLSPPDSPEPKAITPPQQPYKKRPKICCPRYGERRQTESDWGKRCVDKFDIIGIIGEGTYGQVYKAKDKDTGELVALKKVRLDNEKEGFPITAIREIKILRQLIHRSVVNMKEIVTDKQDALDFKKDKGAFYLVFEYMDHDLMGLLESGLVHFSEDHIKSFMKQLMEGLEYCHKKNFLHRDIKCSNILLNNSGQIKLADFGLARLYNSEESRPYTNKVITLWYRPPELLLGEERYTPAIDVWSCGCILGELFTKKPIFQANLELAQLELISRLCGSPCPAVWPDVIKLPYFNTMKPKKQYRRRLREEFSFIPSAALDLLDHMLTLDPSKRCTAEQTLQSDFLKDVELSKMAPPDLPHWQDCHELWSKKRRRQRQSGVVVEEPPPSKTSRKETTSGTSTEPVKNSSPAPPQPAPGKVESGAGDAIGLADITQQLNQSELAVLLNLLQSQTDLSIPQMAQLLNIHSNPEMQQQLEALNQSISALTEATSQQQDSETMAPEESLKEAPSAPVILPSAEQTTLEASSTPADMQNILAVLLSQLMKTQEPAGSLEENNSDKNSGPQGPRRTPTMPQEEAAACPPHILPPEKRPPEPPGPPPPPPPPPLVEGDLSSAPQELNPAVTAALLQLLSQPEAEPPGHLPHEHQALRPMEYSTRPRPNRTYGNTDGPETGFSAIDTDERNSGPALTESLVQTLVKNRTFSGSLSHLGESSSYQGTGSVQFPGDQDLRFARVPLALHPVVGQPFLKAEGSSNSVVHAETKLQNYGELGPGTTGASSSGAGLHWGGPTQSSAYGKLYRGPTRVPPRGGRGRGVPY
Chain of Human CDK12 wt/CycK (O75909 whole entry partner): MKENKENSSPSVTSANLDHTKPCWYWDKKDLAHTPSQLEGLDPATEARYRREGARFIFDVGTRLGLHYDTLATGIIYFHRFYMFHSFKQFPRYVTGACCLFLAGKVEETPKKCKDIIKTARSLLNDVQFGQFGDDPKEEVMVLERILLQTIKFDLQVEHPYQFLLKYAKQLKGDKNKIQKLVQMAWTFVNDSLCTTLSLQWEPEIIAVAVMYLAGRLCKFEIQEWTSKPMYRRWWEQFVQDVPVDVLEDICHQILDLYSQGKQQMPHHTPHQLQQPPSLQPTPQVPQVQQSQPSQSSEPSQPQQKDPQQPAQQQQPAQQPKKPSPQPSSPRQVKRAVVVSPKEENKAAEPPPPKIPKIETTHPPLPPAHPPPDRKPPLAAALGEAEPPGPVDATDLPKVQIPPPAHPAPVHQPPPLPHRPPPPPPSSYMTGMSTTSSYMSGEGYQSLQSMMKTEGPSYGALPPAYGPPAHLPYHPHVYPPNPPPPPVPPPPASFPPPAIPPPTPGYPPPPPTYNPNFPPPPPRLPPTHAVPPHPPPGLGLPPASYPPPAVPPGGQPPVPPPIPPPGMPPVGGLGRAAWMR

| SMILES | IC50 (Human CDK12 wt/CycK; [3]) | CDK7/CDK12 (Human CDK12 wt/CycK) | IC50 (Human CDK12 wt/CycK; [4]) | IC50 (Human CDK7/CycH/MAT1) | Ratio of Biochemical Potency:Cellular Potency (A673 cells) | IC50 (A673 cells; [1]) | IC50 (A673 cells; [2]) |
| --- | --- | --- | --- | --- | --- | --- | --- |
| c1ccc(-c2ccc(CNc3cc(N4CC5(CCNCC5)C4)nc4c(C5CC5)cnn34)cc2)nc1 [PPA-042] | 2020 nM | 5.1 | 2020 nM | 10300 nM | 8.69 | 232 nM | 232 nM |
| O[C@H]1CNCC[C@@H]1CNc1cc(NCc2ccc(-c3ccccn3)cc2)n2ncc(Cl)c2n1 [PPA-016] | 22 nM | 4.3 | 22 nM | 94 nM | 110.00 | 0.2 nM | 0.2 nM |
| c1ccc(-c2ccc(CNc3cc(N[C@@H]4CCNC4)nc4c(C5CC5)cnn34)cc2)nc1 [PPA-043] | 254 nM | 23.9 | 254 nM | 6080 nM | 18.54 | 13.7 nM | 13.7 nM |
| N#Cc1cnn2c(NCc3ccc(-c4ccccc4)cc3)cc(NC[C@H]3CCNC[C@@H]3O)nc12 [PPA-081] | 57 nM | 6.0 | 57 nM | 344 nM | 7.50 | 7.6 nM | 7.6 nM |
| CC(C)c1cnn2c(NCc3ccc(-c4ccncn4)cc3)cc(NC[C@H]3CCNC[C@@H]3O)nc12 [PPA-008] | 52 nM | 3.0 | 52 nM | 154 nM | 1.63 | 32 nM | 32 nM |
| COc1cc(CNc2cc(NC[C@H]3CCNC[C@@H]3O)nc3c(C4CC4)cnn23)ccc1-c1ccccn1 [PPA-015] | 235 nM | 1.9 | 235 nM | 445 nM | 1.31 | 179 nM | 179 nM |
| FC1(F)CNCCC1CNc1cc(NCc2ccc(-c3ccccn3)cc2)n2ncc(C3CC3)c2n1 (stereo not shown) [PPA-041] | 189 nM | 8.5 | 189 nM | 1600 nM | 10.92 | 17.3 nM | 17.3 nM |
| O[C@H]1CNCC[C@@H]1CNc1cc(NCc2ccc(-c3ccccc3)cc2F)n2ncc(C3CC3)c2n1 [PPA-066] | 174 nM | 5.2 | 174 nM | 912 nM | 7.13 | 24.4 nM | 24.4 nM |
| CC(C)c1cnn2c(NCc3ccc(-c4ccccn4)cc3)cc(NC[C@H]3CCNC[C@@H]3O)nc12 [PPA-001, (3R,4R)-4-(((3-isopropyl-7-((4-(pyridin-2-yl)benzyl)amino)pyrazolo[1,5-a]pyrimidin-5-yl)amino)methyl)piperidin-3-ol] | 61 nM | 2.7 | 61 nM | 162 nM | 21.79 | 2.8 nM | 2.8 nM |
| COc1cc(-c2ccccn2)ccc1CNc1cc(NC[C@H]2CCNC[C@@H]2O)nc2c(C3CC3)cnn12 [PPA-030] | 218 nM | 1.7 | 218 nM | 370 nM | 35.16 | 6.2 nM | 6.2 nM |
| c1ccc(-c2ccc(CNc3cc(N4CCNCC4)nc4c(C5CC5)cnn34)cc2)nc1 [PPA-038] | 115 nM | 26.3 | 115 nM | 3020 nM | 18.55 | 6.2 nM | 6.2 nM |
| O[C@H]1CNCC[C@@H]1CNc1cc(NCc2ccc(-c3ncco3)cc2)n2ncc(C3CC3)c2n1 [PPA-031] | 60 nM | 2.6 | 60 nM | 155 nM | 46.15 | 1.3 nM | 1.3 nM |
| NC1CN(c2cc(NCc3ccc(-c4ccccn4)cc3)n3ncc(C4CC4)c3n2)C1 [PPA-057] | 1240 nM | 10.7 | 1240 nM | 13300 nM | 24.65 | 50.3 nM | 50.3 nM |
| COc1cccnc1-c1ccc(CNc2cc(NC[C@H]3CCNC[C@@H]3O)nc3c(C(C)C)cnn23)cc1 [PPA-013] | 89 nM | 1.3 | 89 nM | 114 nM | 40.45 | 2.2 nM | 2.2 nM |
| Cc1nccn1-c1ccc(CNc2cc(NC[C@H]3CCNC[C@@H]3O)nc3c(C4CC4)cnn23)cc1 [PPA-023] | 236 nM | 0.5 | 236 nM | 113 nM | <0.47 | > 500 nM | > 500 nM |

Continued, in another order:

| IC50 (Human CDK12 wt/CycK; [3]) | CDK7/CDK12 (Human CDK12 wt/CycK) | IC50 (Human CDK12 wt/CycK; [4]) | IC50 (Human CDK7/CycH/MAT1) | SMILES | Ratio of Biochemical Potency:Cellular Potency (A673 cells) | IC50 (A673 cells; [1]) | IC50 (A673 cells; [2]) |
| --- | --- | --- | --- | --- | --- | --- | --- |
| 242 nM | 1.9 | 242 nM | 468 nM | O[C@H]1CNCC[C@@H]1CNc1cc(NCc2ccc(-c3ncccc3OC(F)(F)F)cc2)n2ncc(C3CC3)c2n1 [PPA-028] | 24.95 | 9.7 nM | 9.7 nM |
| 34 nM | 2.3 | 34 nM | 79 nM | CC(C)c1cnn2c(NCc3ccc(-c4ccncc4)cc3)cc(NC[C@H]3CCNC[C@@H]3O)nc12 [PPA-002, (3R,4R)-4-(((3-isopropyl-7-((4-(pyridin-4-yl)benzyl)amino)pyrazolo[1,5-a]pyrimidin-5-yl)amino)methyl)piperidin-3-ol] | 0.27 | 127 nM | 127 nM |
| 51 nM | 2.2 | 51 nM | 112 nM | CC(C)c1cnn2c(NCc3ccc(-c4ncccn4)cc3)cc(NC[C@H]3CCNC[C@@H]3O)nc12 [PPA-007] | 30.00 | 1.7 nM | 1.7 nM |
| 245 nM | 1.6 | 245 nM | 388 nM | O[C@H]1CNCC[C@@H]1CNc1cc(NCc2ccc(-c3ncccc3C(F)(F)F)cc2)n2ncc(C3CC3)c2n1 [PPA-036] | 0.78 | 312 nM | 312 nM |
| 49 nM | 12.0 | 49 nM | 589 nM | O[C@H]1CNCC[C@@H]1CNc1cc(NCc2ccc(-c3nccs3)cc2F)n2ncc(C3CC3)c2n1 [PPA-054] | 18.15 | 2.7 nM | 2.7 nM |
| 459 nM | 7.9 | 459 nM | 3640 nM | FC1(CNc2cc(NCc3ccc(-c4ccccn4)cc3)n3ncc(C4CC4)c3n2)CCNCC1 [PPA-062] | 34.25 | 13.4 nM | 13.4 nM |
| 78 nM | 7.5 | 78 nM | 587 nM | O[C@H]1CNCC[C@@H]1CNc1cc(NCc2cn(-c3ccccn3)cn2)n2ncc(C3CC3)c2n1 [PPA-025] | 13.22 | 5.9 nM | 5.9 nM |
| 1190 nM | – | 1190 nM | > 30000 nM | c1ccc(-c2ccc(CNc3cc(-c4ccn[nH]4)nc4c(C5CC5)cnn34)cc2)nc1 [PPA-079] | <11.9 | > 100 nM | > 100 nM |
